Values quoted from earlier work in patent US20250099443A1, “METHODS FOR SYNTHESIZING ALEUTIANAMINE AND ANALOGS THEREOF” (California Institute of Technology, priority 2023, published 2025).

Tested on: human pancreatic adenocarcinoma cell line PANC-1

Compound: O=C1C2=C3C4=[N+](CCc5c[nH]c1c54)[C@@H]1C[C@]34S[C@@H](C=C4C=C1Br)N2 [Aleutianamine]
- IC50 (human pancreatic adenocarcinoma cell line PANC-1, read-out: IC50 against PANC-1): 25 nM
- potency against PANC-1 relative to gemcitabine (times greater than that of gemcitabine): over 160 times
